Consider 28 molecules from ChEMBL document CHEMBL1137267, “Novel aminobenzimidazoles as selective MCH-R1 antagonists for the treatment of metabolic diseases” (Bioorg Med Chem Lett, 2006).

Activity calls are given as the source filed them. The calls are words filed in the database; no cut-off is given here.

Data set [1] has as its system Mus musculus. The experiment in a line: Inhibition of ex vivo MCH-ADO binding in mice 6 hours after 30mg/kg peroral dose. It counts as functional. The following applies: po.
For data set [2], the system named is Mus musculus. The data set is described as follows: Inhibition of ex vivo MCH-ADO binding in mice 24 hours after 30 mg/kg peroral dose. It counts as functional. The following applies: route oral.
Data set [3] has as its target T1, Melanin-concentrating hormone receptor 1 (Homo sapiens, UniProt Q99705). The experiment in a line: Binding activity against human MCH-R1.
The target of data set [4] is Melanin-concentrating hormone receptor 2 (Homo sapiens) (UniProt Q969V1). The experiment in a line: Binding activity against human MCH-R2.
Sequence of Melanin-concentrating hormone receptor 2 (Homo sapiens) (Q969V1 whole entry): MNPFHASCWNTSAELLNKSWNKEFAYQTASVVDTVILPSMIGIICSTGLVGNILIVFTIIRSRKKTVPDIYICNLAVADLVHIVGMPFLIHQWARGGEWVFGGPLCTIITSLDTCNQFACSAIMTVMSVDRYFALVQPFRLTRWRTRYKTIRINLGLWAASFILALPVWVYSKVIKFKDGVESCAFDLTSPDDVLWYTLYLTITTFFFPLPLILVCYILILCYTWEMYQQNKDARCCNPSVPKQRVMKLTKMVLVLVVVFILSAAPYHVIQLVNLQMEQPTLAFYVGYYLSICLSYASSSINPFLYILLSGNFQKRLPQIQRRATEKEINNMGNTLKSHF
Data set [5] is described as follows: AUC in rats following 10 mg/kg peroral dose. It counts as ADME, organism-based. Further details: dose 10 mg/kg, route oral. The following applies: rat, plasma, po.
The species entered for data set [6] is Mus musculus. The experiment in a line: Inhibition of cumulative food intake by fasted DIO mice at 6 hours. It counts as functional.
For data set [7], the species on record is Mus musculus. The data set is described as follows: Inhibition of cumulative food intake by fasted DIO mice at 2 hours. It counts as functional.
The species entered for data set [8] is Mus musculus. The experiment in a line: Inhibition of cumulative food intake by fasted DIO mice at 4 hours. It counts as functional.
The species entered for data set [9] is Mus musculus. The data set is described as follows: Inhibition of cumulative food intake by fasted DIO mice at 24 hours. It counts as functional.
For data set [10], the target named is T1, Melanin-concentrating hormone receptor 1. The data set is described as follows: Inhibition of MCH-mediated calcium influx into CHO cells expressing human MCH-R1by FLIPR assay. It counts as functional, cell-based.

T1 sequence (Q99705 whole entry): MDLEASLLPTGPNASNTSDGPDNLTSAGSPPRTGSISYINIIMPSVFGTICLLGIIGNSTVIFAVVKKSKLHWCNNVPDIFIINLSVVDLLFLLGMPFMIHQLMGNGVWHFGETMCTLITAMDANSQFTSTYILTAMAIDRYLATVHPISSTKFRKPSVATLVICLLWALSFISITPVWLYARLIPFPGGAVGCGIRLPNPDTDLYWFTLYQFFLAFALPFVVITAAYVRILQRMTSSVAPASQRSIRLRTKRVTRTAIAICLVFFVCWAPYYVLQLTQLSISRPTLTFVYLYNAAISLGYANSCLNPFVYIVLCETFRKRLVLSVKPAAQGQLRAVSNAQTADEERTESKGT

In general, inhibition in vivo refers to the drop in the measured response relative to a control, in per cent. The Ki is the dissociation constant of the complex between target and ligand, obtained from inhibition or displacement. On to `CS(=O)(=O)N1CCC(CN(c2nc3cc(Cl)c(Cl)cc3[nH]2)[C@@H]2CCC3(c4cccc(C#N)c4)C[C@@H]3C2)CC1` (single isomer, unassigned), for which the results for the inhibition in vivo at 30 mg/kg with Mus musculus [1] and in the data set with Mus musculus [2] were 12% and 0%, respectively. The same molecule came in with an inhibition constant (Ki) in data set [3] of 1.5 nM. In addition, the inhibition result in data set [4] was “inactive”.

A word on the AUC: it is concentration integrated over time. High values mean more exposure, low ones less exposure. Regarding `CS(=O)(=O)N1CCC(CN(c2nc3cc(F)c(F)cc3[nH]2)[C@@H]2CCC3(c4cccc(C#N)c4)C[C@@H]3C2)CC1` (single isomer, unassigned), in data set [5], the AUC stood at 350 ng·h/mL. In addition, the inhibition in vivo at 30 mg/kg in the data set with Mus musculus [1] and with Mus musculus [2] was 0% in each case. The affinity in data set [3], expressed as Ki, was 27 nM. Further, in [4], the inhibition result was “inactive”.

Consider `CN1CCN(CCCN(c2nc3cc(F)c(F)cc3[nH]2)[C@@H]2CC[C@]3(c4cccc(CN5CCC[C@H]5CO)c4)C[C@@H]3C2)CC1`, for which the inhibition result in [4] was “inactive”.

As to `CN1CCN(CCCN(c2nc3cc(F)c(F)cc3[nH]2)[C@@H]2CCC3(c4cccc(CN5CCN(C)CC5)c4)C[C@@H]3C2)CC1` (single isomer, unassigned), the inhibition result in data set [4] is “inactive”.

In turn, `CN1CCN(CCCN(c2nc3cc(Cl)c(Cl)cc3[nH]2)[C@@H]2CCC3(c4cccc(CN5CCOCC5)c4)C[C@@H]3C2)CC1` (single isomer, unassigned) had a Ki in [3] of 14.2 nM. The inhibition result in data set [4] was “inactive”.

As a reminder, the Inhibition is the change of the read-out against control, counted positive when it falls. On to `CN1CCN(CCCN(c2nc3cc(Cl)c(Cl)cc3[nH]2)[C@@H]2CCC3(c4cccc(C#N)c4)C[C@@H]3C2)CC1` (single isomer, unassigned), for which the AUC in data set [5] came out at 965 ng·h/mL. Besides, the inhibition in vivo at 30 mg/kg with Mus musculus [1] stood at 81%; in the data set with Mus musculus [2] it was 97%. Further, the Inhibition in the data set filed under Mus musculus [6] was 18%; in the data set listed under Mus musculus [7], 12%; in the data set listed under Mus musculus [8] it was 19%; in the data set filed under Mus musculus [9] it was 9%. In data set [4], the inhibition result was “inactive”.

As for `CN1CCN(CCCN(c2nc3cc(F)c(F)cc3[nH]2)[C@@H]2CCC3(c4cccc(C#N)c4)C[C@@H]3C2)CC1` (single isomer, unassigned), in data set [5], the AUC amounted to 293 ng·h/mL. Besides, the values for the inhibition in vivo at 30 mg/kg in the data set on Mus musculus [1] and with Mus musculus [2] were 37% and 17%, respectively. Also, the inhibition entry in [4] is “inactive”.

With `CC(C)(C)OC(=O)N1CCC(CN(c2nc3cc(Cl)c(Cl)cc3[nH]2)[C@@H]2CCC3(c4cccc(C#N)c4)C[C@@H]3C2)CC1` (single isomer, unassigned), in data set [3], the inhibition constant (Ki) came to 1140 nM. Also, the inhibition result in data set [4] was “inactive”.

In the case of `CN1CCN(CCCN(c2nc3cc(F)c(Cl)cc3[nH]2)[C@@H]2CC[C@]3(c4ccc(C#N)cc4)C[C@H]23)CC1`, the inhibition in vivo at 30 mg/kg in the data set on Mus musculus [1] is 100%; in the data set on Mus musculus [2], 81%. Also, the inhibition entry in data set [4] was “inactive”.

`CN1CCN(CCCN(c2nc3cc(Cl)c(F)cc3[nH]2)[C@@H]2CC[C@]3(c4ccc(C#N)cc4)C[C@H]23)CC1` displayed an inhibitory constant (Ki) in [3] of 4.9 nM.

In the case of `CN1CCN(CCCN(c2nc3cc(F)c(F)cc3[nH]2)[C@@H]2CCC3(c4cccc(CN5CCCC5)c4)C[C@@H]3C2)CC1` (single isomer, unassigned), the Ki in data set [3] came out at 25.7 nM. Also, in [4], the inhibition result was “inactive”.

Consider `CN1CCN(CCCN(c2nc3cc(Cl)c(F)cc3[nH]2)[C@@H]2CCC3(c4cccc(C#N)c4)C[C@@H]3C2)CC1` (single isomer, unassigned), for which the affinity in data set [3] corresponds to a Ki of 6.2 nM. Moreover, the inhibition entry in data set [4] was “inactive”.

`CN1CCN(CCCN(c2nc3cc(F)c(Cl)cc3[nH]2)[C@@H]2CC[C@]3(c4cccc(C#N)c4)C[C@H]23)CC1`: the inhibition in vivo at 30 mg/kg in the data set with Mus musculus [1] was 92%; with Mus musculus [2] it was 77%. Further, the Inhibition is 21% in the data set filed under Mus musculus [6], 13% in the data set listed under Mus musculus [7], 19% in the data set listed under Mus musculus [8] and 5% in the data set filed under Mus musculus [9]. Also, the inhibition result in data set [4] was “inactive”. The Kb in [10] is 10 nM.

Molecule `CN1CCN(CCCN(c2nc3cc(Cl)c(F)cc3[nH]2)[C@@H]2CC[C@]3(c4cccc(C#N)c4)C[C@H]23)CC1` registered an exposure (AUC) in data set [5] of 1920 ng·h/mL. The Ki in data set [3] amounted to 5.6 nM.

`CN(C)Cc1cccc(C23CC[C@@H](N(CCCN4CCN(C)CC4)c4nc5cc(F)c(F)cc5[nH]4)C[C@H]2C3)c1` (single isomer, unassigned): in [3], the Ki is 328 nM. For the same molecule, in [4], the inhibition result was “inactive”.

With `CN1CCN(CCCN(c2nc3cc(Cl)c(Cl)cc3[nH]2)[C@@H]2CC[C@]3(c4ccc(C#N)cc4)C[C@H]23)CC1`, the Ki in data set [3] was 11.4 nM. For the same molecule, in [4], the inhibition entry is “inactive”.

Molecule `CN1CCN(CCCN(c2nc3cc(Cl)c(Cl)cc3[nH]2)[C@@H]2CCC3(c4cccc(C=O)c4)C[C@@H]3C2)CC1` (single isomer, unassigned) registered a Ki in data set [3] of 13.7 nM. Moreover, the inhibition result in data set [4] was “inactive”.

Regarding `CS(=O)(=O)N1CCC(CN(c2nc3cc(F)c(Cl)cc3[nH]2)[C@@H]2CCC3(c4cccc(C#N)c4)C[C@@H]3C2)CC1` (single isomer, unassigned), in data set [3], the Ki was 6.7 nM. The inhibition entry in data set [4] is “inactive”.

With `CN1CCN(CCCN(c2nc3cc(F)c(F)cc3[nH]2)[C@@H]2CCC3(c4cccc(CN5CCCCC5)c4)C[C@@H]3C2)CC1` (single isomer, unassigned), the inhibition result in data set [4] was “inactive”.

Regarding `CN1CCN(CCCN(c2nc3cc(F)c(F)cc3[nH]2)[C@@H]2CCC3(c4cccc(CO)c4)C[C@@H]3C2)CC1` (single isomer, unassigned), in [4], the inhibition entry was “inactive”.

In [3], `CN1CCN(CCCN(c2nc3cc(F)c(F)cc3[nH]2)[C@@H]2CCC3(c4cccc(C=O)c4)C[C@@H]3C2)CC1` (single isomer, unassigned) gave a Ki of 16.3 nM. Moreover, the inhibition entry in data set [4] was “inactive”.

For the molecule `CN1CCN(CCCN(c2nc3cc(F)c(C(F)(F)F)cc3[nH]2)[C@@H]2CC[C@]3(c4ccc(C#N)cc4)C[C@H]23)CC1`, the AUC in data set [5] amounted to 2800 ng·h/mL. For the same molecule, the inhibition in vivo at 30 mg/kg with Mus musculus [1] stood at 100%; in the data set on Mus musculus [2], 94%. Besides, in data set [3], the Ki was 8.6 nM. Further, the Kb in [10] was determined as 43 nM.

In the case of `CN1CCN(CCCN(c2nc3cc(F)c(F)cc3[nH]2)[C@@H]2CC[C@]3(c4cccc(C#N)c4)C[C@H]23)CC1`, the exposure (AUC) in [5] amounted to 1490 ng·h/mL. Moreover, the inhibition in vivo at 30 mg/kg turned out to be 75% in the data set with Mus musculus [1] and 33% with Mus musculus [2]. Moreover, in [3], the Ki worked out at 20.7 nM. Further, the inhibition entry in data set [4] is “inactive”.

Turning to `CN1CCN(CCCN(c2nc3cc(Cl)c(Cl)cc3[nH]2)[C@@H]2CC[C@]3(c4cccc(C#N)c4)C[C@H]23)CC1`, the inhibition in vivo at 30 mg/kg was 97% in the data set with Mus musculus [1] and 51% with Mus musculus [2]. The affinity in [3], expressed as Ki, was 6.8 nM. Further, the inhibition entry in data set [4] is “inactive”. In addition, the Kb in [10] was 20 nM.

For the molecule `CO/N=C/c1cccc([C@]23CC[C@@H](N(CCCN4CCN(C)CC4)c4nc5cc(F)c(F)cc5[nH]4)C[C@H]2C3)c1`, affinity in data set [3] was put at a Ki of 28.2 nM. Besides, the inhibition entry in data set [4] is “inactive”.

On to `CN1CCN(CCCN(c2nc3cc(F)c(F)cc3[nH]2)[C@@H]2CC[C@]3(c4cccc(CN5CC[C@H](O)C5)c4)C[C@@H]3C2)CC1`, for which the Ki in [3] amounted to 441 nM. For the same molecule, the inhibition result in [4] is “inactive”.

`CN(C)Cc1cccc(C23CC[C@@H](N(CCCN4CCN(C)CC4)c4nc5cc(Cl)c(Cl)cc5[nH]4)C[C@H]2C3)c1` (single isomer, unassigned) showed an inhibitory constant (Ki) in data set [3] of 4.9 nM. In data set [4], the inhibition result was “inactive”.

In [3], `CN1CCN(CCCN(c2nc3cc(F)c(F)cc3[nH]2)[C@@H]2CCC3(c4cccc(CN5CCOCC5)c4)C[C@@H]3C2)CC1` (single isomer, unassigned) had a Ki of 21.3 nM. In data set [4], the inhibition entry was “inactive”.
